Measured values published in PubChem BioAssay (NCI).
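Dose response: 5 concentrations. Exposure: 48 h. Format: 96-well plates. Endpoint: linear interpolation; highest concentration if not reached. TGI: total growth inhibition.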

Legend:
Test in all cases: NCI anticancer screen, dose series, 48 h
M14 melanoma = test system: M14 melanoma
HCT-116 colon = test system: HCT-116 colon
OVCAR-3 ovarian = test system: OVCAR-3 ovarian
NCI-H522 lung = test system: NCI-H522 lung
OVCAR-8 ovarian = test system: OVCAR-8 ovarian
HOP-92 NSCLC = test system: HOP-92 NSCLC
EKVX NSCLC = test system: EKVX NSCLC
TK-10 renal = test system: TK-10 renal
UACC-62 melanoma = test system: UACC-62 melanoma
K-562 leukemia = test system: K-562 leukemia

Measured: TGI

CN(C)c1ccc(/C=c2/c3ccccc3n3c2cc(NC(=O)NCCC[N+](C)(C)C)[n+]3C)cc1
> 100 µM: all assays above
